Read-outs that look alike come from different tables or passages of the source.
Experiments:
[1] = molecular target: human mGluR5a receptor (Homo sapiens, UniProt P41594); assay: Cell-based functional Ca2+ mobilization assay (FDSS), potentiation of glutamate EC20 response in H10H cell line; conditions: for Emax: percent of maximal glutamate response, human mGluR5 HEK cells; for pEC50 / EC50: HEK cells transfected with human mGluR5 (H10H), presence of glutamate EC20; for pEC50: concentration in mol/L; for EC50: read-out: EC50
Chain of human mGluR5a receptor (P41594 21-1180 isoform P41594-2 limits assumed): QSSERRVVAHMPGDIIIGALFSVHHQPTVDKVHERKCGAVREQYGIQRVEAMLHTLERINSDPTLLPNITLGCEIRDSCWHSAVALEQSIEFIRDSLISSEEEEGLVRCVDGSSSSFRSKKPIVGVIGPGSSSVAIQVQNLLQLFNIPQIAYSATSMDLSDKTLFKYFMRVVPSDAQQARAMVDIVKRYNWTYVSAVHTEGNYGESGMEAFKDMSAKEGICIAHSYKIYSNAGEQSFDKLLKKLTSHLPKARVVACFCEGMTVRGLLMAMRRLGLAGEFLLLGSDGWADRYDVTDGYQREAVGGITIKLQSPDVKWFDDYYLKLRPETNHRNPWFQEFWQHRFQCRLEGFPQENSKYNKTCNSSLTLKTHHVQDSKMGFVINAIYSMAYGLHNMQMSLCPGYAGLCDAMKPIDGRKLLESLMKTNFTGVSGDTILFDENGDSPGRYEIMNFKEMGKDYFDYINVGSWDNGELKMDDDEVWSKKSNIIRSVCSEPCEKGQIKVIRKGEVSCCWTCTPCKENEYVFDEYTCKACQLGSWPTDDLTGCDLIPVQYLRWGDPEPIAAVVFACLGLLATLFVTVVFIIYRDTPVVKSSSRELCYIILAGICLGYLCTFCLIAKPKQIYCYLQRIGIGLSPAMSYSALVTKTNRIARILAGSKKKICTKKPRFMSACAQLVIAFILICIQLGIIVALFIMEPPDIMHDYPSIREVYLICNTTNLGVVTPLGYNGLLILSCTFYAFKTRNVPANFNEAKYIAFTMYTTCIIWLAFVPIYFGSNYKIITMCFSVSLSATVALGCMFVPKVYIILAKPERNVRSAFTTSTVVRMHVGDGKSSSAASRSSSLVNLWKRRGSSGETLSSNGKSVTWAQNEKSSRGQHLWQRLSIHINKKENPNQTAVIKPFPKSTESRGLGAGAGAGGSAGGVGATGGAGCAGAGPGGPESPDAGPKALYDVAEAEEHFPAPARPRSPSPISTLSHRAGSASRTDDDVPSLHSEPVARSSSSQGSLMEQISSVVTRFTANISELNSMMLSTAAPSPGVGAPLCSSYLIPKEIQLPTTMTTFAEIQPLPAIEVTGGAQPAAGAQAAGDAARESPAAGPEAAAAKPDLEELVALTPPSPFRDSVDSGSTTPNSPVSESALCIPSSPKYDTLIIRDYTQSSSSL
Procedure: Human embryonic kidney (HEK) cells transfected with rat mGluR5 were plated in clear bottom assay plates for assay in a Functional Drug Screening System (FDSS). In the alternative assay, HEK cells transfected with human mGluR5 (H10H cell line) were plated for assay in the FDSS. […] The cells were loaded with a Ca^2+-sensitive fluorescent dye (e.g., Fluo-4), and the plates were washed and placed in the FDSS instrument. After establishment of a fluorescence baseline for twelve seconds, the compounds of the present invention were added to the cells, and the response in cells was measured. Alternatively, in various further aspects, after establishment of a fluorescence baseline for about three seconds, the compounds of the present invention were added to the cells, and the response in cells was measured. Five minutes later, an mGluR5 agonist (e.g., glutamate, 3,5-dihydroxyphenylglycine, or quisqualate) was added to the cells, and the response of the cells was measured.
The above described assay operated in two modes. In the first mode, a range of concentrations of the present compounds were added to cells, followed by a single fixed concentration of agonist. If a compound acted as a potentiator, an EC50 value for potentiation and a maximum extent of potentiation by the compound at this concentration of agonist was determined by non-linear curve fitting. In the second mode, several fixed concentrations of the present compounds were added to various wells on a plate, followed by a range of concentrations of agonist for each concentration of present compound; the EC50 values for the agonist at each concentration of compound were determined by non-linear curve fitting. A decrease in the EC50 value of the agonist with increasing concentrations of the present compounds (a leftward shift of the agonist concentration-response curve) is an indication of the degree of mGluR5 potentiation at a given concentration of the present compound. An increase in the EC50 value of the agonist with increasing concentrations of the present compounds (a rightward shift of the agonist concentration-response curve) is an indication of the degree of mGluR5 antagonism at a given concentration of the present compound. The second mode also indicates whether the present compounds also affect the maximum response to mGluR5 to agonists.
The mGluR5 activity was determined using the metabotropic glutamate receptor activity assays in human embryonic kidney cells as described herein, wherein the human embryonic kidney cells were transfected with human mGluR5. The compounds in Table 1 were synthesized with methods identical or analogous to those shown herein. The requisite starting materials were commercially available, described in the literature, or readily synthesized by one skilled in the art of organic synthesis.
Human mGluR5a cDNA in pCMV6-XL6 mammalian expression plasmid was purchased from OriGene Technologies, Inc. (catalogue number SC326357) and subcloned into pcDNA3.1(−). Human embryonic kidney (HEK)293A cells were then transfected with human mGluR5a pcDNA3.1(−) using LipofectAmine2000 (Invitrogen) and monoclones were selected and tested for functional response using a Ca^2+ mobilization assay. Monoclones were named for the species (“H” for human) plus the location on the plate (e.g. “10H”).
HEK cells transfected with the human mGluR5a receptor (H10H cell line) were plated at 15,000 cells/well in clear-bottomed poly-D-lysine-coated assay plates (BD Falcon) in glutamate-glutamine-free growth medium and incubated overnight at 37° C. and 5% CO2. The following day, the growth medium was removed and the cells were washed with assay buffer containing 1× Hank's balanced salt solution (Invitrogen, Carlsbad, Calif.), 20 mM HEPES, 2.5 mM probenecid, pH 7.4 and left with 20 μL of this reagent.

[2] = tested on: male Sprague-Dawley rats; assay: Reversal of amphetamine-induced hyperlocomotion in rats; format: in vivo, rat; conditions: oral gavage, doses as in FIG. 4; amphetamine sulfate 1 mg/kg sc; data only in FIG. 4
Procedure: Locomotor activity was assessed as mean distance traveled (cm) in standard 16×16 photocell testing chambers measuring 43.2 cm (Length)×43.2 cm (Width)×30.5 cm (Height) (Med Associates, St. Albans, Vt.). Animals were habituated to individual activity chambers for at least 30 min prior to drug administration. Following administration of drug or vehicle, activity was recorded for a 90 minute time period. Data was expressed as the mean (±SEM) distance traveled recorded in 5 min intervals over the test period. The data was analyzed using repeated measures analysis of variance (ANOVA) followed by post-hoc testing using Dunnett's test, when appropriate. A difference was considered significant when p≦0.05. […]
The animals were habituated in Smart Open Field locomotor activity test chambers (Hamilton-Kinder, San Diego, Calif.) with 16×16 photobeams to automatically record locomotor activity for 30 min and then dosed with vehicle or test compound. […] At 60 min, all rats were injected subcutaneously with 1 mg/kg amphetamine or vehicle and then monitored for an additional 60 min. Animals are monitored for a total of 120 minutes. Data are expressed as changes in ambulation defined as total number of beam breaks per 5 min periods.
The data for the dose-response studies were analyzed by a between-group analysis of variance. […]

[3] = HEK293, maximum average response at a single concentration, read-out: Emax
[4] = maximum average response at a single concentration

Emax [1, 3] [%]	pEC50 [1]	EC50 [1] [nM]	melting point [°C]	Emax [1, 4] [%]	Compound	reversal of amphetamine-induced hyperlocomotion [2]
81	5.78	1660	133.3		N#Cc1cc(C(=O)N2CCn3nc(COc4ccccc4)cc3C2)ccc1F [Compound 28]	
47	<5.00	> 10000	60		O=C(c1ncccc1Cl)N1CCn2nc(COc3ccccc3)cc2C1 [Compound 29]	
59	6.48	331	101.5		N#Cc1cccc(C(=O)N2CCn3nc(COc4cccc(F)c4)cc3C2)c1 [Compound 30]	
54	6.77	170	76.8		N#Cc1cc(F)cc(C(=O)N2CCn3nc(COc4cccc(F)c4)cc3C2)c1 [Compound 31]	
23	5.75	1780	> 300		N#Cc1ccc(C(=O)N2CCn3nc(COc4cccc(F)c4)cc3C2)cc1F [Compound 32]	
71	5.98	1050	57.1		N#Cc1cc(C(=O)N2CCn3nc(COc4cccc(F)c4)cc3C2)ccc1F [Compound 33]	
36	<4.52	> 30200	105.5		Cc1cnc(C(=O)N2CCn3nc(COc4cccc(F)c4)cc3C2)cn1 [Compound 35]	
39	<5.00	> 10000	282.6		O=C(c1ccnnc1)N1CCn2nc(COc3cccc(F)c3)cc2C1 [Compound 36]	
55	6.68	209	> 300		O=C(c1cccc(F)c1)N1CCn2nc(COc3ccc(F)cc3)cc2C1 [Compound 39]	
72	6.25	562	88.8		CC1CN(C(=O)c2cccc(C#N)c2)Cc2cc(COc3ccccc3)nn21 (centres unmarked) [Compound 43]	
	6.62	240	53.8	75	CC1Cn2nc(COc3ccccc3)cc2CN1C(=O)c1ccc(F)cc1 (centres unmarked) [Compound 45]	
	<4.52	> 30200	> 300	35	CC1Cn2nc(COc3ccccc3)cc2CN1C(=O)c1ccc(F)cc1 (centres unmarked) [Compound 46]	
52	5.56	2750	> 300		CC1Cn2nc(COc3ccccc3)cc2CN1C(=O)c1cccc(C#N)c1 (centres unmarked) [Compound 49]	
	6.36	437	53.9	59	CC1Cn2nc(COc3ccccc3)cc2CN1C(=O)c1cccc(C#N)c1 (centres unmarked) [Compound 50]	
23	5.53	2950	136		O=C(c1ccc(F)cc1)N1CCn2nc(COc3ccccc3)c(Cl)c2C1 [Compound 55]	
44	5.52	3020	158.5		Cc1c(COc2ccccc2)nn2c1CN(C(=O)c1ccc(F)cc1)CC2 [Compound 57]	
					O=C(c1ccc(F)cc1)N1CCn2nc(COc3ccccc3)cc2C1 [FPPPM, (4-fluorophenyl)(2-(phenoxymethyl)-6,7-dihydropyrazolo[1,5-a]pyrazin-5(4H)-yl)methanone]	reversal of amphetamine-induced hyperlocomotion

Source: patent US9255103B2, “Substituted pyrazolo[1,5-a]pyrazines as mGluR5 receptor modulators” (Vanderbilt University, priority 2010, dated 2016)
